± gives the expanded uncertainty stated by the source.
Settings: Gas, Oscillating disk viscometry

[Ar] [argon]
viscosity (300.11 K, 400 kPa): 0.02271 ± 0.00077 mPa·s | viscosity (300.17 K, 103 kPa): 0.02279 ± 0.0011 mPa·s | viscosity (300.19 K, 199 kPa): 0.02265 ± 0.0011 mPa·s | viscosity (300.25 K, 302 kPa): 0.02265 ± 0.00077 mPa·s | viscosity (300.32 K, 832 kPa): 0.02286 ± 0.00078 mPa·s | viscosity (300.38 K, 616 kPa): 0.0228 ± 0.00077 mPa·s | viscosity (300.49 K, 2082 kPa): 0.02335 ± 0.00079 mPa·s | viscosity (300.54 K, 3089 kPa): 0.02347 ± 0.00079 mPa·s | viscosity (300.56 K, 4050 kPa): 0.02364 ± 0.0008 mPa·s | viscosity (300.58 K, 4503 kPa): 0.02383 ± 0.0008 mPa·s | viscosity (300.63 K, 3427 kPa): 0.02343 ± 0.00079 mPa·s | viscosity (300.66 K, 2759 kPa): 0.02338 ± 0.00079 mPa·s | viscosity (300.68 K, 1446 kPa): 0.02313 ± 0.00078 mPa·s | viscosity (300.7 K, 3729 kPa): 0.02351 ± 0.0008 mPa·s | viscosity (300.72 K, 2458 kPa): 0.02338 ± 0.00079 mPa·s | viscosity (300.76 K, 1775 kPa): 0.02325 ± 0.00079 mPa·s | viscosity (300.89 K, 1117 kPa): 0.02293 ± 0.00078 mPa·s

FC(F)CC(F)(F)F [1,1,1,3,3-pentafluoropropane]
viscosity (300.81 K, 136 kPa): 0.01064 ± 0.00042 mPa·s | viscosity (300.88 K, 113 kPa): 0.01065 ± 0.00043 mPa·s | viscosity (300.93 K, 107 kPa): 0.01066 ± 0.00043 mPa·s | viscosity (320.26 K, 145 kPa): 0.01124 ± 0.00044 mPa·s | viscosity (320.33 K, 186 kPa): 0.01125 ± 0.00044 mPa·s | viscosity (320.53 K, 108 kPa): 0.01127 ± 0.00044 mPa·s | viscosity (320.58 K, 254 kPa): 0.01127 ± 0.00044 mPa·s | viscosity (338.61 K, 100 kPa): 0.01186 ± 0.00046 mPa·s | viscosity (338.61 K, 435 kPa): 0.01186 ± 0.00046 mPa·s | viscosity (338.98 K, 307 kPa): 0.01184 ± 0.00046 mPa·s | viscosity (339.02 K, 207 kPa): 0.01186 ± 0.00046 mPa·s | viscosity (339.15 K, 145 kPa): 0.01186 ± 0.00046 mPa·s | viscosity (357.15 K, 592 kPa): 0.01252 ± 0.00048 mPa·s | viscosity (357.23 K, 104 kPa): 0.01256 ± 0.00048 mPa·s | viscosity (357.23 K, 305 kPa): 0.01253 ± 0.00048 mPa·s | viscosity (357.38 K, 159 kPa): 0.01255 ± 0.00048 mPa·s | viscosity (357.39 K, 108 kPa): 0.01256 ± 0.00048 mPa·s | viscosity (357.4 K, 224 kPa): 0.01254 ± 0.00048 mPa·s | viscosity (357.43 K, 403 kPa): 0.01252 ± 0.00048 mPa·s | viscosity (357.43 K, 708 kPa): 0.01252 ± 0.00048 mPa·s | viscosity (357.52 K, 503 kPa): 0.01252 ± 0.00048 mPa·s | viscosity (376.25 K, 164 kPa): 0.01303 ± 0.00049 mPa·s | viscosity (376.38 K, 254 kPa): 0.01303 ± 0.00049 mPa·s | viscosity (376.39 K, 567 kPa): 0.01306 ± 0.00049 mPa·s | viscosity (376.43 K, 1071 kPa): 0.01318 ± 0.0005 mPa·s | viscosity (376.46 K, 107 kPa): 0.01304 ± 0.00049 mPa·s | viscosity (376.54 K, 348 kPa): 0.01304 ± 0.00049 mPa·s | viscosity (376.58 K, 676 kPa): 0.01308 ± 0.00049 mPa·s | viscosity (376.61 K, 457 kPa): 0.01305 ± 0.00049 mPa·s | viscosity (376.61 K, 945 kPa): 0.01314 ± 0.0005 mPa·s | viscosity (376.63 K, 1312 kPa): 0.01339 ± 0.0005 mPa·s | viscosity (376.64 K, 797 kPa): 0.0131 ± 0.00049 mPa·s | viscosity (395.6 K, 109 kPa): 0.01357 ± 0.00051 mPa·s | viscosity (395.66 K, 213 kPa): 0.01355 ± 0.00051 mPa·s | viscosity (395.77 K, 311 kPa): 0.01358 ± 0.00051 mPa·s | viscosity (395.8 K, 417 kPa): 0.01359 ± 0.00051 mPa·s | viscosity (395.81 K, 823 kPa): 0.0137 ± 0.00051 mPa·s | viscosity (395.85 K, 512 kPa): 0.01362 ± 0.00051 mPa·s | viscosity (395.93 K, 616 kPa): 0.01364 ± 0.00051 mPa·s | viscosity (395.93 K, 723 kPa): 0.01366 ± 0.00051 mPa·s | viscosity (396 K, 934 kPa): 0.01374 ± 0.00051 mPa·s | viscosity (396.02 K, 1280 kPa): 0.01396 ± 0.00052 mPa·s | viscosity (396.17 K, 1390 kPa): 0.01408 ± 0.00052 mPa·s | viscosity (396.22 K, 1164 kPa): 0.01388 ± 0.00052 mPa·s | viscosity (396.24 K, 1044 kPa): 0.01386 ± 0.00052 mPa·s | viscosity (396.35 K, 1505 kPa): 0.01416 ± 0.00052 mPa·s | viscosity (396.46 K, 1614 kPa): 0.0143 ± 0.00053 mPa·s
